pIC50: −log10 of the molar value. Like-named read-outs stand apart in the source and are kept apart here. Marks after values point to notes of the source that are not given here.
Tests used:
[1] = type: in vitro ADME; details: liver microsomes
[2] = molecular target: T1, wild-type androgen receptor (AR) in LAPC4 cell line (Homo sapiens, UniProt P10275); type: cell-based
T1 sequence (P10275 1-920): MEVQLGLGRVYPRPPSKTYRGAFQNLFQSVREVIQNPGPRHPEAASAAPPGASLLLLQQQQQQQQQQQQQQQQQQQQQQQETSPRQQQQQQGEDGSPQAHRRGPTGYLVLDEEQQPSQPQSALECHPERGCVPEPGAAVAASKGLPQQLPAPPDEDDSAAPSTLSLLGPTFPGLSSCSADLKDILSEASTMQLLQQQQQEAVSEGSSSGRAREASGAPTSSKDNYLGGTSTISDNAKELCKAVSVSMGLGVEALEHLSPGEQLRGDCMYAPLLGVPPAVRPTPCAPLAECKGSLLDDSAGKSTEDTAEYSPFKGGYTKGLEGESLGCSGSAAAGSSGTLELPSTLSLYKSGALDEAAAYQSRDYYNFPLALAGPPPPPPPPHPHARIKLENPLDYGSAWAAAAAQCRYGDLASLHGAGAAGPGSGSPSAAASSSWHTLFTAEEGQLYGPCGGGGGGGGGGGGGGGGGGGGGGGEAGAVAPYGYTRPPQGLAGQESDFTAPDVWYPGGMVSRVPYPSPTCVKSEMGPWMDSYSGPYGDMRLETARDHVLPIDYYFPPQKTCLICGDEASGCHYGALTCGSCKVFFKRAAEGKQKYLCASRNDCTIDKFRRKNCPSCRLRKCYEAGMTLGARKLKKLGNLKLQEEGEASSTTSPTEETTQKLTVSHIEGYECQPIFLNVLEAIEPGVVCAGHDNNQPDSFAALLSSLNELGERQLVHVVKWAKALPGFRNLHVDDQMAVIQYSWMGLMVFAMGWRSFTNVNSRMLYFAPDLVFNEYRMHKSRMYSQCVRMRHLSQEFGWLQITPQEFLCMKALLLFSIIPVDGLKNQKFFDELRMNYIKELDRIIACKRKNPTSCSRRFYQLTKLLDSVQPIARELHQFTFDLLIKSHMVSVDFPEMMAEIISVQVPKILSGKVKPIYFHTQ

[3] = in vitro; details: mouse, microsomes
[4] = in vitro; details: human, microsomes
[5] = physchem; type: physicochemical; details: pH 7.4
[6] = system: S. mansoni; assay: S. mansoni in vivo study, worm burden reduction in infected NMRI mice; set-up: species or system Schistosoma mansoni in NMRI mice
[7] = system: S. mansoni; details: 1 × 100 mg/kg po; ref Keiser et al. 21; cited from earlier work
[8] = system: S. mansoni; details: cited from earlier work
[9] = Mouse exposure study after oral administration; type: in vivo, male Swiss outbred mice; details: after oral administration of 100 mg/kg of 1
[10] = 0.01 M HCl (approximately pH 2.0), 1% DMSO, nephelometry
[11] = pH 6.5 phosphate buffer, 1% DMSO, nephelometry

Compound	Sol2.0 [10]	Sol6.5 [11]	metabolic stability (in words) [1]	further results
CC1(C)CC(=O)N(c2ccc(F)c(C(F)(F)F)c2)C(=O)N1 [Compd 34, 3-[4-Fluoro-3-(trifluoromethyl)phenyl]-6,6-dimethyldihydropyrimidine-2,4(1H,3H)-dione]	25–50/25–50 μg/mL	25–50/25–50 μg/mL	–	–
CN1C(=O)N(c2ccc(F)c(C(F)(F)F)c2)C(=O)C1(C)C [Compd 2, 3-[4-Fluoro-3-(trifluoromethyl)phenyl]-1,5,5-trimethylimidazolidine-2,4-dione]	50–100/50–100 μg/mL	50–100/50–100 μg/mL	intermediate	metabolic reactions observed [1]: N-dealkylation metabolic reactions to form 1
CC1(C)CC(=O)N(c2ccc(F)c(C(F)(F)F)c2)C1=O [Compd 29, 1-[4-Fluoro-3-(trifluoromethyl)phenyl]-3,3-dimethylpyrrolidine-2,5-dione]	12.5–25/12.5–25 μg/mL	12.5–25/12.5–25 μg/mL	–	–
O=C1N[C@H](c2ccccc2)C(=O)N1c1ccc(F)c(C(F)(F)F)c1 [Compd 24, (R)-3-[4-Fluoro-3-(trifluoromethyl)phenyl]-5-phenylimidazolidine-2,4-dione]	6.3–12.5/6.3–12.5 μg/mL	6.3–12.5/6.3–12.5 μg/mL	decreased the metabolic stabilities	pIC50 [2]: 5.28; microsomal CLint [3]: 181 µL/min/mg; microsomal CLint [4]: 22 µL/min/mg; chromatographic logD [5]: 3.5; inhibition in vivo at 100 mg/kg ([6]; Schistosoma mansoni, in Mus musculus, po, 504 h, read-out: S. mansoni WBR): 41%
CC1(C)C(=O)N(c2ccc(F)c(C(F)(F)F)c2)C(=O)N1CCc1ccccc1 [Compd 6, 3-[4-Fluoro-3-(trifluoromethyl)phenyl]-5,5-dimethyl-1-phenethylimidazolidine-2,4-dione]	12.5 to 25 µg/mL	25 to 50 µg/mL	unstable	–
CC1(C)NC(=O)N(c2ccnc(C(F)(F)F)c2)C1=O [Compd 16, 5,5-Dimethyl-3-[2-(trifluoromethyl)pyridin-4-yl]imidazolidine-2,4-dione]	–	–	–	cure of infected mice ([6]; 100 mg/kg): cure of all of the infected mice
CC1(C)CNC(=O)N(c2ccc(F)c(C(F)(F)F)c2)C1=O [Compd 35, 3-[4-Fluoro-3-(trifluoromethyl)phenyl]-5,5-dimethyldihydropyrimidine-2,4(1H,3H)-dione]	12.5–25/12.5–25 μg/mL	12.5–25/12.5–25 μg/mL	–	–
O=C1NC2(CCCCC2)C(=O)N1c1ccc(F)c(C(F)(F)F)c1 [Compd 27, 3-[4-Fluoro-3-(trifluoromethyl)phenyl]-1,3-diazaspiro[4.5]decane-2,4-dione]	3.1–6.3/3.1–6.3 μg/mL	3.1–6.3/3.1–6.3 μg/mL	decreased the metabolic stabilities	–
CC1(C)NC(=O)C(c2ccc(F)c(C(F)(F)F)c2)C1=O (stereo not drawn) [Compd 31, 3-[4-Fluoro-3-(trifluoromethyl)phenyl]-5,5-dimethylpyrrolidine-2,4-dione]	25 to 50 µg/mL	–	–	–
O=C1C2CCCN2C(=O)N1c1ccc(F)c(C(F)(F)F)c1 (stereo not drawn) [Compd 28, 2-[4-Fluoro-3-(trifluoromethyl)phenyl]tetrahydro-1H-pyrrolo[1,2-c]imidazole-1,3(2H)-dione]	25–50/25–50 μg/mL	25–50/25–50 μg/mL	decreased the metabolic stabilities	–
O=C(C1CCCCC1)N1CC(=O)N2CCc3ccccc3C2C1 (stereo not drawn) [PZ, Praziquantel]	–	–	–	S. mansoni WBR [7]: 18 ^i %; Sol2.0 (pH 2): >100/>100 μg/mL; Sol6.5 (pH 6.5): >100/>100 μg/mL; ED50 against adult S. mansoni ([8]; mouse model): 172 to 202 mg/kg; activity against juvenile stages of the parasite ([8]; mouse model): no significant activity
CC1(CO)NC(=O)N(c2ccc(F)c(C(F)(F)F)c2)C1=O (stereo not drawn) [Compd 25, 3-[4-Fluoro-3-(trifluoromethyl)phenyl]-5-(hydroxymethyl)-5-methylimidazolidine-2,4-dione]	25–50/25–50 μg/mL	25–50/25–50 μg/mL	high metabolic stabilities	exposure of metabolite relative to 1, based on AUC0–24h [9]: approximately 3%
CC1(C)C(=O)N(c2ccc(F)c(C(F)(F)F)c2)C(=O)N1S(C)(=O)=O [Compd 7, 3-[4-Fluoro-3-(trifluoromethyl)phenyl]-5,5-dimethyl-1-(methylsulfonyl)imidazolidine-2,4-dione]	1.6–3.1/1.6–3.1 μg/mL	1.6–3.1/1.6–3.1 μg/mL	highly stable	–
O=C1NC2(CCCC2)C(=O)N1c1ccc(F)c(C(F)(F)F)c1 [Compd 26, 3-[4-Fluoro-3-(trifluoromethyl)phenyl]-1,3-diazaspiro[4.4]nonane-2,4-dione]	50–100/50–100 μg/mL	50–100/50–100 μg/mL	decreased the metabolic stabilities	–
CC1(C)NC(=O)N(c2ccc([N+](=O)[O-])c(C(F)(F)F)c2)C1=O [N, nilutamide]	–	–	–	antischistosomal activity in S. mansoni-infected mice [8]: weak, but measurable
CC1(C)C(=O)N(c2ccc(F)c(C(F)(F)F)c2)C(=O)N1CC(N)=O [Compd 4, 2-[3-[4-Fluoro-3-(trifluoromethyl)phenyl]-5,5-dimethyl-2,4-dioxoimidazolidin-1-yl]acetamide]	50–100/50–100 μg/mL	50–100/50–100 μg/mL	–	LAPC4 IC50 ([2]; DHT-induced luciferase reporter, 24 h): agonist; AR functional activity (in words) ([2]; LAPC4 reporter): weak AR agonist
CC1(C)OC(=O)N(c2ccc(F)c(C(F)(F)F)c2)C1=O [Compd 30, 3-[4-Fluoro-3-(trifluoromethyl)phenyl]-5,5-dimethyloxazolidine-2,4-dione]	3.1–6.3/3.1–6.3 μg/mL	3.1–6.3/3.1–6.3 μg/mL	–	–
CC1(C)C(=O)N(c2ccc(F)c(C(F)(F)F)c2)C(=O)N1CC#N [Compd 5, 2-[3-[4-Fluoro-3-(trifluoromethyl)phenyl]-5,5-dimethyl-2,4-dioxoimidazolidin-1-yl]acetonitrile]	25–50/25–50 μg/mL	25–50/25–50 μg/mL	–	–
CC(C)(NC(=O)Nc1ccc(F)c(C(F)(F)F)c1)C(=O)O [Compd 36, 2-[3-[4-Fluoro-3-(trifluoromethyl)phenyl]ureido]-2-methylpropanoic acid]	25 to 50 µg/mL	–	–	exposure of metabolite relative to 1, based on AUC0–24h [9]: < 1%
CCN1C(=O)N(c2ccc(F)c(C(F)(F)F)c2)C(=O)C1(C)C [Compd 3, 1-Ethyl-3-[4-fluoro-3-(trifluoromethyl)phenyl]-5,5-dimethylimidazolidine-2,4-dione]	50 to 100 µg/mL	25 to 50 µg/mL	intermediate	metabolic reactions observed [1]: N-dealkylation metabolic reactions to form 1
CC1(C)CN(c2ccc(F)c(C(F)(F)F)c2)C(=O)N1 [Compd 32, 1-[4-Fluoro-3-(trifluoromethyl)phenyl]-4,4-dimethylimidazolidin-2-one]	12.5–25/12.5–25 μg/mL	12.5–25/12.5–25 μg/mL	–	–
CC1(C)C(=O)N(c2ccc(F)c(C(F)(F)F)c2)C(=O)N1S(=O)(=O)c1ccccc1 [Compd 8, 3-[4-Fluoro-3-(trifluoromethyl)phenyl]-5,5-dimethyl-1-(phenylsulfonyl)imidazolidine-2,4-dione]	<1.6/<1.6 μg/mL	<1.6/<1.6 μg/mL	unstable	–
O=C1CNC(=O)N1c1ccc(F)c(C(F)(F)F)c1 [Compd 22]	>100/>100 μg/mL	>100/>100 μg/mL	high metabolic stabilities	–
CC1(C)C(=O)NC(=O)N1c1ccc(F)c(C(F)(F)F)c1 [Compd 33, 1-[4-Fluoro-3-(trifluoromethyl)phenyl]-5,5-dimethylimidazolidine-2,4-dione]	25–50/25–50 μg/mL	25–50/25–50 μg/mL	–	–

Source: paper PMC5150661 (Journal of Medicinal Chemistry, 2016)
